Active and inactive are the calls of the source. No cut-off for these calls is given here.
Columns and labels:
Salmonella typhimurium = experiment: Antimicrobial activity against Salmonella typhimurium ATCC 14028 assessed as inhibition of microbial growth incubated for 64 hrs by broth-microdilution assay; assay type: functional, Salmonella enterica subsp. enterica serovar Typhimurium; conditions: Salmonella enterica
[1] = Toxicity in Kunming mouse assessed as change in AST level at 2 mg/kg, iv (reference value: 91.5 +/- 7.2 IU/L); assay type: organism-based; conditions: in vivo
[2] = Toxicity in Kunming mouse assessed as body weight loss at 2 mg/kg, iv; assay type: organism-based; conditions: in vivo
Klebsiella pneumoniae [3] = experiment: Induction of morphological changes in Klebsiella pneumoniae ATCC 13883 assessed as leakage in cellular contents measured for 96 hrs by transmission electron microscopy analysis; assay type: functional, organism-based
[4] = molecular target: Programmed cell death protein 1/Programmed cell death 1 ligand 1 (Homo sapiens, UniProt Q9NZQ7); experiment: Inhibition of PD-1/PD-L1 (unknown origin) protein-protein interaction preincubated for 15 mins followed by PD-1-Eu addition and measured after 90 mins by TR-FRET assay; assay type: protein-complex assay
Chain of Programmed cell death protein 1/Programmed cell death 1 ligand 1 (Q15116 whole entry): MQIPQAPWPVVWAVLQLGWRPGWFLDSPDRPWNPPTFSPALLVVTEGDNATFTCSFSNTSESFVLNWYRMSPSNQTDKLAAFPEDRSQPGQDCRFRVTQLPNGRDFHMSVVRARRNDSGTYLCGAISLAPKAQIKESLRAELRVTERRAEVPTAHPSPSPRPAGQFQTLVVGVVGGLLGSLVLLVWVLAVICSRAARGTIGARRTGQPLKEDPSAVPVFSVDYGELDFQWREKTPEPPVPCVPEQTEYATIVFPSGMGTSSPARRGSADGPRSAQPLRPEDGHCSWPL
Chain of Programmed cell death protein 1/Programmed cell death 1 ligand 1 (Q9NZQ7 whole entry): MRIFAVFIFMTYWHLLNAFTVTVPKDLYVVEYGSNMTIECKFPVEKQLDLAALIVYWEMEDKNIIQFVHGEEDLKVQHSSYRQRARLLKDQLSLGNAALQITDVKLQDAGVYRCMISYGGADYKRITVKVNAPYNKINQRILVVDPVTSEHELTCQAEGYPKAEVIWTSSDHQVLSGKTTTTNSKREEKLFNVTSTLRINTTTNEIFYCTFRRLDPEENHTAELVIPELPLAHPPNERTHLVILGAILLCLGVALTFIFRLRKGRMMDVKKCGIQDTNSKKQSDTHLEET

[5] = Half life in rat at 2 mg/kg, iv measured upto 24 hrs by LC-MS/MS analysis; assay type: ADME, organism-based; conditions: in vivo
Klebsiella pneumoniae [6] = experiment: Antibacterial activity against Klebsiella pneumoniae ATCC 13883 infected in Kunming mouse model assessed as reduction in alveolar space in lung at 2 mg/kg, iv by H and E staining based analysis; assay type: functional, organism-based
Klebsiella pneumoniae [7] = experiment: Downregulation of PD-1 expression in Klebsiella pneumoniae ATCC 13883 by Western blot analysis; assay type: functional
[8] = Toxicity in Kunming mouse assessed as change in BUN level at 2 mg/kg, iv (reference value: 11.2 +/- 2 mmol/L); assay type: organism-based; conditions: in vivo
[9] = Toxicity in Kunming mouse assessed as change in ALT level at 2 mg/kg, iv (reference value: 54.8 +/- 5.2 IU/L); assay type: organism-based; conditions: in vivo
[10] = Toxicity in Kunming mouse assessed as change in CRE level at 2 mg/kg, iv (reference value: 16.7 +/- 1.6 micromol/L); assay type: organism-based; conditions: in vivo
Klebsiella pneumoniae [11] = experiment: Bactericidal activity against Klebsiella pneumoniae ATCC 13883 assessed as reduction in survival rate by colony counting method; assay type: functional
Klebsiella pneumoniae [12] = experiment: Downregulation of IFN-gamma expression in Klebsiella pneumoniae ATCC 13883 by Western blot analysis; assay type: functional
Klebsiella pneumoniae [13] = experiment: Downregulation of NLRP3 expression in Klebsiella pneumoniae ATCC 13883 by Western blot analysis; assay type: functional
Klebsiella pneumoniae [14] = experiment: Downregulation of IFN-gamma expression in Klebsiella pneumoniae ATCC 13883 by immunohistochemistry analysis; assay type: functional
Klebsiella pneumoniae [15] = experiment: Downregulation of IL-2 expression in Klebsiella pneumoniae ATCC 13883 by Western blot analysis; assay type: functional
[16] = Toxicity in Kunming mouse assessed as lung damage at 2 mg/kg, iv by H and E staining based analysis; assay type: organism-based; conditions: in vivo
[17] = Clearance in rat at 2 mg/kg, iv measured upto 24 hrs by LC-MS/MS analysis; assay type: ADME, organism-based; conditions: in vivo
[18] = molecular target: T1, UDP-3-O-acyl-N-acetylglucosamine deacetylase (Escherichia coli K-12, UniProt P0A725); experiment: Binding affinity to Escherichia coli LpxC assessed as dissociation constant by SPR analysis
T1 sequence (P0A725 whole entry): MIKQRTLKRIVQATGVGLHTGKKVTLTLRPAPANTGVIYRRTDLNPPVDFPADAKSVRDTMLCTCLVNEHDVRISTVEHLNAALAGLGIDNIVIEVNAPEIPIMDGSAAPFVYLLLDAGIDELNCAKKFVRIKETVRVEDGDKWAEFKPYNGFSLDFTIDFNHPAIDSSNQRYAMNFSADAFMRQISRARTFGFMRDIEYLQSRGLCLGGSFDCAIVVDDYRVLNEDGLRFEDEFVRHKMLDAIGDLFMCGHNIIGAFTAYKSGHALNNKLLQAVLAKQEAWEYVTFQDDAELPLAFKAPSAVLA

[19] = molecular target: Programmed cell death 1 ligand 1 (Homo sapiens) (UniProt Q9NZQ7); experiment: Binding affinity to PD-L1 (unknown origin) assessed as association constant at equilibrium by ITC analysis
Chain of Programmed cell death 1 ligand 1 (Homo sapiens) (Q9NZQ7 whole entry): as the sequence (Q9NZQ7 whole entry) above

[20] = molecular target: Programmed cell death 1 ligand 1 (Homo sapiens) (UniProt Q9NZQ7); experiment: Binding affinity to PD-L1 (unknown origin) assessed as Change in enthalpy by ITC analysis
Klebsiella pneumoniae [21] = experiment: Antibacterial activity against Klebsiella pneumoniae ATCC 13883 infected in Kunming mouse model assessed as reduction in bacterial proliferation at 2 mg/kg, iv; assay type: functional, organism-based
Pseudomonas aeruginosa [22] = experiment: Antimicrobial activity against Pseudomonas aeruginosa ATCC 9027 assessed as inhibition of microbial growth incubated for 64 hrs by broth-microdilution assay; assay type: functional
Escherichia coli = experiment: Antimicrobial activity against Escherichia coli ATCC 8739 assessed as inhibition of microbial growth incubated for 64 hrs by broth-microdilution assay; assay type: functional
Klebsiella pneumoniae [23] = experiment: Induction of morphological changes in Klebsiella pneumoniae ATCC 13883 assessed as reduction in cell wall thickness measured for 24 hrs by transmission electron microscopy analysis; assay type: functional, organism-based
Klebsiella pneumoniae [24] = experiment: Antimicrobial activity against Klebsiella pneumoniae ATCC 13883 assessed as increase in percentage of bacterial cells by flow cytometry analysis; assay type: functional, organism-based
Klebsiella pneumoniae [25] = experiment: Downregulation of IL-2 expression in Klebsiella pneumoniae ATCC 13883 by immunohistochemistry analysis; assay type: functional
Klebsiella pneumoniae [26] = experiment: Antimicrobial activity against Klebsiella pneumoniae ATCC 13883 assessed as inhibition zone; assay type: functional
Klebsiella pneumoniae [27] = experiment: Antibacterial activity against Klebsiella pneumoniae ATCC 13883 infected in Kunming mouse model measured after 8 hrs; assay type: functional, organism-based
Klebsiella pneumoniae [28] = experiment: Induction of intracellular ROS accumulation in Klebsiella pneumoniae ATCC 13883 incubated for 12 hrs by fluorescence microscopic analysis; assay type: functional, organism-based
[29] = Toxicity in Kunming mouse assessed as lung damage at 2 mg/kg, iv by masson staining based analysis; assay type: organism-based; conditions: in vivo
Klebsiella pneumoniae [30] = experiment: Antimicrobial activity against Klebsiella pneumoniae ATCC 13883 assessed as inhibition of microbial growth incubated for 64 hrs by broth-microdilution assay; assay type: functional
Klebsiella pneumoniae [31] = experiment: Antibacterial activity against Klebsiella pneumoniae ATCC 13883 infected in Kunming mouse model assessed as organised collagen fibers in skin tissue at 2 mg/kg, iv by Masson's trichome staining based analysis; assay type: functional, organism-based
[32] = Binding affinity to PD-L1 (unknown origin) assessed as dissociation constant by SPR analysis; design: species or system Homo sapiens
Klebsiella pneumoniae [33] = experiment: Downregulation of PD-L1 expression in Klebsiella pneumoniae ATCC 13883 by Western blot analysis; assay type: functional
A549 = experiment: Cytotoxicity against human A549 cells incubated for 24 hrs by CCK-8 assay; assay type: functional, cell-based; conditions: A549, 24 h
HeLa = experiment: Cytotoxicity against human HeLa cells incubated for 24 hrs by CCK-8 assay; assay type: functional, cell-based
[34] = Initial plasma concentration in rat at 2 mg/kg, iv measured upto 24 hrs by LC-MS/MS analysis; assay type: ADME, organism-based; conditions: plasma
[35] = Volume of distribution at steady state in rat at 2 mg/kg, iv measured upto 24 hrs by LC-MS/MS analysis; assay type: ADME, organism-based; conditions: in vivo, read-out: Vdss
Klebsiella pneumoniae [36] = experiment: Downregulation of NF-kappaB expression in Klebsiella pneumoniae ATCC 13883 by Western blot analysis; assay type: functional
[37] = molecular target: T1, UDP-3-O-acyl-N-acetylglucosamine deacetylase; experiment: Inhibition of Escherichia coli LpxC
Klebsiella pneumoniae [38] = experiment: Downregulation of PD-L1 expression in Klebsiella pneumoniae ATCC 13883 by immunohistochemistry analysis; assay type: functional
Pseudomonas aeruginosa [39] = experiment: Antimicrobial activity against Pseudomonas aeruginosa ATCC 9027 assessed as inhibition zone; assay type: functional; conditions: time 64 hrs
[40] = Toxicity in Kunming mouse assessed as side effect at 2 mg/kg, iv; assay type: organism-based; conditions: in vivo
Klebsiella pneumoniae [41] = experiment: Downregulation of MMP9 expression in Klebsiella pneumoniae ATCC 13883 by Western blot analysis; assay type: functional
Klebsiella pneumoniae [42] = experiment: Induction of morphological changes in Klebsiella pneumoniae ATCC 13883 assessed as leakage in cellular contents measured for 48 hrs by transmission electron microscopy analysis; assay type: functional, organism-based
[43] = AUC (0 to t) in rat at 2 mg/kg, iv measured upto 24 hrs by LC-MS/MS analysis; assay type: ADME, organism-based; conditions: in vivo
Klebsiella pneumoniae [44] = experiment: Induction of morphological changes in Klebsiella pneumoniae ATCC 13883 assessed as reduction in cell membrane thickness measured for 24 hrs by transmission electron microscopy analysis; assay type: functional, organism-based

SMILES: Cc1c(COc2cccc(CNC(C(=O)NO)C(C)O)c2)cccc1-c1ccccc1 (stereo not drawn)
- MIC50 (Salmonella typhimurium): 0.5 µg/mL
- Activity [1]: 104.2 IU/L
- Activity [2]: Non-toxic
- Activity (Klebsiella pneumoniae [3]): Active
- IC50 [4]: 81 nM
- half-life [5]: 2.39 h
- Activity (Klebsiella pneumoniae [6]): Active
- Activity (Klebsiella pneumoniae [7]): Active
- Activity [8]: 8.6 mmol/L
- Activity [9]: 34.5 IU/L
- Activity [10]: 12.5 µmol/L
- Activity (Klebsiella pneumoniae [11]): Active
- Activity (Klebsiella pneumoniae [12]): Active
- Activity (Klebsiella pneumoniae [13]): Active
- Activity (Klebsiella pneumoniae [14]): Active
- Activity (Klebsiella pneumoniae [15]): Active
- Activity [16]: Non-toxic
- clearance [17]: 63.7 mL/min/kg
- Kd [18]: 0.357 nM
- Ka [19]: 6.04 10^5/M
- deltaH [20]: 1.79 kcal/mol
- Activity (Klebsiella pneumoniae [21]): Active
- MIC50 (Pseudomonas aeruginosa [22]): 0.5 µg/mL
- MIC50 (Escherichia coli): 0.5 µg/mL
- Activity (Klebsiella pneumoniae [23]): Active
- Activity (Klebsiella pneumoniae [24]): Active
- Activity (Klebsiella pneumoniae [25]): Active
- inhibition zone (IZ) (Klebsiella pneumoniae [26]): 14.7 mm
- Activity (Klebsiella pneumoniae [27]): Active
- Activity (Klebsiella pneumoniae [28]): Active
- Activity [29]: Non-toxic
- MIC50 (Klebsiella pneumoniae [30]): 0.25 µg/mL
- Activity (Klebsiella pneumoniae [31]): Active
- Kd [32]: 0.523 nM
- Activity (Klebsiella pneumoniae [33]): Active
- IC50 (A549): > 50000 nM
- IC50 (HeLa): > 50000 nM
- C0 at 24 h [34]: 649 ng/mL
- Vd [35]: 5.71 L/kg
- Activity (Klebsiella pneumoniae [36]): Active
- IC50 [37]: 5200 nM
- Activity (Klebsiella pneumoniae [38]): Active
- inhibition zone (IZ) (Pseudomonas aeruginosa [39]): 14.2 mm
- Activity [40]: Non-toxic
- Activity (Klebsiella pneumoniae [41]): Active
- Activity (Klebsiella pneumoniae [42]): Active
- AUC(0-t) at 24 h [43]: 431 ng·h/mL
- Activity (Klebsiella pneumoniae [44]): Active
